Data as given in publication PMC5706701, “Development of a homogenous high-throughput assay for inositol hexakisphosphate kinase 1 activity” (PLoS ONE, 2017).
Where a name gives a salt, the structure may show the parent alone. Read-outs that look alike come from different tables or passages of the source.

Molecular target: T1, Human IP6K1 (Homo sapiens, UniProt Q92551)
T1 construct: GST (N, cleaved yes); made in house; host or cells: C43 E. coli, pGEX-6P-2
Assay: IP6K1 high-throughput screen of the Sigma LOPAC (ADP-Glo Max, single point);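 note: final compound concentration 10µM in 5% DMSO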
Type: biochemical

[1] = LOPAC single-point screen, ADP-Glo Max luminescence raw signal per well
[2] = LOPAC single-point screen, Z-score from plate average and StDev
[3] = LOPAC single-point screen, Z-score relative to plate average and StDev
[4] = LOPAC single-point screen, ADP-Glo Max raw signal per well
[5] = LOPAC single-point screen, Z-score from raw signal with plate average and StDev
[6] = Sigma LOPAC single-point screen, ADP-Glo Max raw signal per well
[7] = Sigma LOPAC single-point screen, Z-score from plate average and StDev
[8] = LOPAC single-point screen, Z-score against plate average and StDev

T1 sequence (Q92551 whole entry): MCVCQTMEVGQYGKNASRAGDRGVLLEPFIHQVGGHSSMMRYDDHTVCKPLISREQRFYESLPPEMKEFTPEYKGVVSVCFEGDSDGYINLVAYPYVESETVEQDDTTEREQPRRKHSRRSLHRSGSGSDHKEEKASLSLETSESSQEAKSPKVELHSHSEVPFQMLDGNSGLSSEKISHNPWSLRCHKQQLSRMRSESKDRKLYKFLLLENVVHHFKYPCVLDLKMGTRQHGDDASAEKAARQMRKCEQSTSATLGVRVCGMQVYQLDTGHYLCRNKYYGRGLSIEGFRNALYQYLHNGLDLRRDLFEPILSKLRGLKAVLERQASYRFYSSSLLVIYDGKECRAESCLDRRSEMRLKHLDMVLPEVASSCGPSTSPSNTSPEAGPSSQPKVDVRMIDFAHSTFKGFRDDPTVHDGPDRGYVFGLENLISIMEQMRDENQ

## CN(C)C/C=C(/c1ccc(Br)cc1)c1cccnc1 [Zimelidine dihydrochloride]
[1]
  Raw Signal: 63127
[2]
  Z-score: 1.38

## OCc1cc(C(O)CNCCCCCCOCCCCc2ccccc2)ccc1O (stereo not shown) [Salmeterol]
[1]
  Raw Signal: 52718
[3]
  Z-score: -0.6423

## O=C(O)c1cc2cc(F)ccc2[nH]1 [5-Fluoroindole-2-carboxylic acid]
  Raw Signal: 61098
  Z-score: 0.5609

## Cn1cc(C(=O)OCC2CCN(CCNS(C)(=O)=O)CC2)c2ccccc21 [GR 113808]
[4]
  Raw Signal: 56278
[5]
  Z-score: -0.288

## Cc1c(C)c2c(c(C)c1O)CCC(C)(CN1CCN(c3cc(N4CCCC4)nc(N4CCCC4)n3)CC1)O2.Cl.Cl (stereo not shown) [U-83836 dihydrochloride]
[1]
  Raw Signal: 52883
[3]
  Z-score: -0.6102

## CC(=O)Oc1ccccc1C(=O)O [Acetylsalicylic acid]
[1]
  Raw Signal: 52950
[3]
  Z-score: -0.8741

## CN1CCN(CC/C=C2/c3ccccc3Sc3ccc(S(=O)(=O)N(C)C)cc32)CC1.Cl [Thiothixene hydrochloride]
[1]
  Raw Signal: 52919
[3]
  Z-score: -0.6032

## CCN(CC)CCNC(=O)c1cc(S(C)(=O)=O)ccc1OC [Tiapride hydrochloride]
[6]
  Raw Signal: 58277
[7]
  Z-score: 0.4378

## C[N+](C)(C)CCCCCCCCCC[N+](C)(C)C.[Br-].[Br-] [Decamethonium dibromide]
[1]
  Raw Signal: 52379
[3]
  Z-score: -0.5662

## O=S(=O)(c1cccc2c(Cl)cccc12)N1CCCNCC1 [ML-9]
[4]
  Raw Signal: 57828
[8]
  Z-score: -0.01499

## Cn1cnc2c1c(=O)[nH]c(=O)n2C [Theobromine]
[1]
  Raw Signal: 52921
[3]
  Z-score: -0.6028

## CN(C)c1nc(N)c(C(=O)NC(=N)N)nc1Cl [5-(N,N-Dimethyl)amiloride hydrochloride]
[4]
  Raw Signal: 56769
[5]
  Z-score: -0.2015

## COC1(C2=NCCN2)COc2ccccc2O1.Cl (stereo not shown) [RX 821002 hydrochloride]
[4]
  Raw Signal: 56903
[8]
  Z-score: 0.1708

## COc1cc2c(c(OC)c1OC)-c1ccc(OC)c(=O)cc1[C@@H](NC(C)=O)CC2 [Colchicine]
[4]
  Raw Signal: 58343
[8]
  Z-score: 0.07572

## CCN(CC)CCCC(C)Nc1ccnc2cc(Cl)ccc12 (stereo not shown) [Chloroquine diphosphate]
  Raw Signal: 55954
  Z-score: -0.3451

## Clc1cnc(Oc2ccc(Oc3ncc(Cl)cc3Cl)cc2)c(Cl)c1 [TCPOBOP]
[4]
  Raw Signal: 54822
[5]
  Z-score: -0.2335

## Cl.c1ccc2sc(C3(N4CCCCC4)CCCCC3)cc2c1 [BTCP hydrochloride]
[4]
  Raw Signal: 55871
[5]
  Z-score: -0.3597

## Cc1ccccc1N1C(=O)c2cc(S(N)(=O)=O)c(Cl)cc2NC1C (stereo not shown) [Metolazone]
[4]
  Raw Signal: 54501
[8]
  Z-score: 0.01806

## O=c1c2ccccc2[nH]c(=S)n1CCN1CCC(=C(c2ccc(F)cc2)c2ccc(F)cc2)CC1 [Diacylglycerol Kinase Inhibitor II]
[4]
  Raw Signal: 55319
[8]
  Z-score: 0.03086

## CC[C@H](C)C(=O)O[C@H]1CCC=C2C=C[C@H](C)[C@H](CC[C@@H]3C[C@@H](O)CC(=O)O3)[C@H]21 [Mevastatin]
[1]
  Raw Signal: 50064
[3]
  Z-score: -0.7275

## O=c1ccc2ccc(O)c(O)c2o1 [Daphnetin]
[4]
  Raw Signal: 55045
[8]
  Z-score: -0.02478

## N=C(N)N1CCc2ccccc2C1 [Debrisoquin sulfate]
[1]
  Raw Signal: 61933
[2]
  Z-score: 1.3741

## COc1cc2nc(N3CCN(C(=O)C4COc5ccccc5O4)CC3)nc(N)c2cc1OC (stereo not shown) [Doxazosin mesylate]
[6]
  Raw Signal: 57817
[7]
  Z-score: 0.5382

## O=C(O)Cc1c[nH]c2ccc(O)cc12 [5-Hydroxyindolacetic acid]
[6]
  Raw Signal: 56978
[7]
  Z-score: 0.3678

## O=C(c1ccc2c(c1)OCCO2)N1CCCCC1 [CX 546]
[6]
  Raw Signal: 57767
[7]
  Z-score: 0.528

## Ro 20-1724
[1]
  Raw Signal: 54602
[3]
  Z-score: -0.5832

## Nc1ncnc2c1ncn2[C@@H]1O[C@H](COP(=O)(O)OP(=O)(O)OP(=O)(O)OP(=O)(O)OC[C@H]2O[C@@H](n3cnc4c(N)ncnc43)[C@H](O)[C@@H]2O)[C@@H](O)[C@H]1O
[4]
  Raw Signal: 55437
[8]
  Z-score: 0.05483

## Cc1nc(-c2ccc(-c3ccc(C(=O)N4CCc5cc6c(cc54)C4(CCN(C)CC4)CO6)cc3)c(C)c2)no1.Cl [SB 224289 hydrochloride]
[6]
  Raw Signal: 58823
[7]
  Z-score: 0.5438

## C=CCc1ccccc1OCC(O)CNC1(C)CCC(C(C)(C)NC(=O)CBr)CC1 (stereo not shown) [Bromoacetyl alprenolol menthane]
[4]
  Raw Signal: 55252
[5]
  Z-score: -0.4687

## O=C(O)c1ccccc1Nc1cccc(OCc2ccc3ccccc3n2)c1 [SR 2640]
[1]
  Raw Signal: 52929
[3]
  Z-score: -0.6013

## CC(COc1ccc(/C=C/c2ccccc2)cc1)[N+](C)(C)C.[I-] (stereo not shown)
[1]
  Raw Signal: 63739
[2]
  Z-score: 1.499

## O=[N+]([O-])c1cc2nc(O)c(O)nc2cc1[N+](=O)[O-] [DNQX]
[1]
  Raw Signal: 50774
[3]
  Z-score: -0.8922

## CC(CN(C)C)CN1c2ccccc2CCc2ccccc21 (stereo not shown) [Trimipramine maleate]
[1]
  Raw Signal: 53117
[3]
  Z-score: -0.5647

## NCCS(=O)O [Hypotaurine]
[4]
  Raw Signal: 53524
[5]
  Z-score: -0.3337

## Cl.O=C(O)Cc1c[nH]cn1 [Imidazole-4-acetic acid hydrochloride]
[4]
  Raw Signal: 55616
[8]
  Z-score: 0.09118

## C=CCn1c(=O)c2c(nc(-c3ccc(S(=O)(=O)O)cc3)n2C)n(C)c1=O
[6]
  Raw Signal: 65523
[7]
  Z-score: 1.34

## Cc1cnc(NC(=O)C2=C(O)c3ccccc3S(=O)(=O)N2C)s1 [Meloxicam sodium]
[4]
  Raw Signal: 55155
[8]
  Z-score: 0.128

## OC1(c2ccc(Cl)cc2)CCN(Cc2c[nH]c3ccccc23)CC1 [L-741,626]
[1]
  Raw Signal: 51249
[3]
  Z-score: -0.5284

## CO[C@@]1(NC(=O)CSCC#N)C(=O)N2C(C(=O)O)=C(CSc3nnnn3C)CS[C@@H]21 [Cefmetazole sodium]
[1]
  Raw Signal: 53279
[3]
  Z-score: -0.8162

## C=C[C@H]1C[N@@]2CC[C@H]1C[C@H]2[C@H](O)c1ccnc2ccc(OC)cc12 [Quinine sulfate]
[4]
  Raw Signal: 53765
[5]
  Z-score: -0.4388

## CC(C)NCC(O)c1ccc(O)c(O)c1.Cl (single isomer, unassigned; (-)) [(-)-Isoproterenol hydrochloride]
[1]
  Raw Signal: 50939
[3]
  Z-score: -0.5804

## Cn1c(=O)c2[nH]c(C3CCCC3)nc2n(C)c1=O [8-Cyclopentyl-1,3-dimethylxanthine]
[6]
  Raw Signal: 58283
[7]
  Z-score: 0.6328

## Br.Cc1o[nH]c(=O)c1CC(N)C(=O)O (racemic) [(±)-AMPA hydrobromide]
[4]
  Raw Signal: 54656
[5]
  Z-score: -0.1038

## C[C@H](Cc1ccc(OCC(=O)[O-])cc1)NC[C@H](O)c1cccc(Cl)c1.[Na+] [BRL 37344 sodium]
[1]
  Raw Signal: 53982
[3]
  Z-score: -0.6924

## CN1CC[C@@]23CCCC[C@@H]2[C@@H]1Cc1ccc(O)cc13.O=C(O)C(O)C(O)C(=O)O [Dextrorphan D-tartrate]
[1]
  Raw Signal: 63036
[2]
  Z-score: 1.598

## O=C(O)CN(CCN(CC(=O)O)CC(=O)O)CCN(CC(=O)O)CC(=O)O [Diethylenetriaminepentaacetic acid]
[4]
  Raw Signal: 53021
[5]
  Z-score: -0.4358

## NCCS(=O)(=O)O [Taurine]
[1]
  Raw Signal: 52621
[3]
  Z-score: -0.6611

## O=c1n(CCCN2CCN(c3cccc(Cl)c3)CC2)nc2ccccn12 [Trazodone hydrochloride]
[6]
  Raw Signal: 58114
[7]
  Z-score: 0.4061

## CCCN(CCC)CCc1c[nH]c2ccc(C(N)=O)cc12.O=C(O)/C=C\C(=O)O
[6]
  Raw Signal: 60214
[7]
  Z-score: 1.025

## CC1=C(/C=C/C(C)=C/C=C/C(C)=C/C=C/C=C(C)/C=C/C=C(C)/C=C/C2=C(C)C(=O)[C@@H](O)CC2(C)C)C(C)(C)C[C@H](O)C1=O [Astaxanthin]
[4]
  Raw Signal: 57440
[8]
  Z-score: -0.08333

## CC(C)NC[C@H](O)c1ccc(O)c(O)c1.O=C(O)C(O)C(O)C(=O)O [R(-)-Isoproterenol (+)-bitartrate]
[1]
  Raw Signal: 62194
[2]
  Z-score: 1.427

## CC(=O)CCCCn1c(=O)c2c(ncn2C)n(C)c1=O [Pentoxifylline]
[4]
  Raw Signal: 53271
[5]
  Z-score: -0.1886

## C[C@@](Cc1ccc(O)c(O)c1)(NN)C(=O)O [S-(-)-Carbidopa]
[4]
  Raw Signal: 55065
[8]
  Z-score: -0.02072

## CC(C(=O)O)c1cccc(C(=O)c2ccccc2)c1 (stereo not shown) [Ketoprofen]
[4]
  Raw Signal: 53403
[5]
  Z-score: -0.1664

## CC(C)COC(=O)OCN1C(=O)CN(CCN2CC(=O)N(COC(=O)OCC(C)C)C(=O)C2)CC1=O [Sobuzoxane]
[4]
  Raw Signal: 54088
[5]
  Z-score: -0.3761

## Cn1c(=O)[nH]c2ncn(C)c2c1=O [1,7-Dimethylxanthine]
[4]
  Raw Signal: 53863
[5]
  Z-score: -0.2648

## CN(C(=O)Cc1ccc(Cl)c(Cl)c1)C(CN1CCCC1)c1cccc(OCC(=O)O)c1.Cl (stereo not shown) [ICI 204,448 hydrochloride]
[4]
  Raw Signal: 53600
[5]
  Z-score: -0.1333

## Oc1ncnc2[nH]ncc12 [Allopurinol]
[4]
  Raw Signal: 56130
[5]
  Z-score: -0.3141

## NCCCCNCCCN [Spermidine trihydrochloride]
[6]
  Raw Signal: 60576
[7]
  Z-score: 0.8844

## N[C@@H](CS(=O)O)C(=O)O [L-Cysteinesulfinic Acid]
[4]
  Raw Signal: 57943
[8]
  Z-score: 0.005266

## CN(C)C(N)=NCCC[C@H](N)C(=O)O.Cl [N^G,N^G-Dimethylarginine hydrochloride]
[4]
  Raw Signal: 52909
[5]
  Z-score: -0.4586

## COC(=O)[C@@H]1[C@H]2C[C@H]3c4[nH]c5ccccc5c4CCN3C[C@@H]2CC[C@@H]1O [Yohimbine hydrochloride]
[4]
  Raw Signal: 57737
[8]
  Z-score: 0.3328
